Like-named read-outs stand apart in the source and are kept apart here.
Molecular target: T1, human polymorphonuclear leukocyte elastase (Homo sapiens, UniProt P08246)
T1 construct: Crude extract of human polymorphonuclear leukocytes (PMN) containing elastase activity; endogenous in cells; host or cells: human polymorphonuclear leukocytes (crude extract)
T1 sequence (P08246 30-247 limits assumed): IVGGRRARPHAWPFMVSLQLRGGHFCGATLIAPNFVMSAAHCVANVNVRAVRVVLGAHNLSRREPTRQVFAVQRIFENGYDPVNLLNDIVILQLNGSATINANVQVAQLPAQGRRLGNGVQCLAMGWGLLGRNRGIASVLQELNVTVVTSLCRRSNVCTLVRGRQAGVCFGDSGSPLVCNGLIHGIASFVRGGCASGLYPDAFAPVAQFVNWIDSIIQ
Test: Inhibition of human polymorphonuclear leukocyte (granulocyte) elastase via hydrolysis of Boc-AAPAN or Boc-AAPVN
Type: biochemical
Settings: (per mole per second), read-out: kobs/I, second order rate constant of inactivation of the enzyme
Protocol: Enzyme Assays for the Inhibition of Human Polymorphonuclear Leukocyte Elastase Via Hydrolysis of N-t-Boc-alanyl-alanyl-prolylalanine-p-nitroanilide (Boc-AAPAN) or N-t-Boc-alanyl-prolylvaline-p-nitroanilide (Boc-AAPVN) Reagent:
0.05M TES (N-tris[hydroxymethyl]methyl-2-amino-ethanesulfonic acid) Buffer, pH 7.5.
0.2 mM Boc-AAPAN or Boc-AAPVN.
To prepare substrate, the solid was first dissolved in 10.0 ml DMSO. Buffer at pH 7.5 was then added to a final volume of 100 ml.
Crude extract of human polymorphonuclear leukocytes (PMN) containing elastase activity.
Inhibitors (azetidinones) to be tested dissolved in DMSO just before use.
To 1.0 ml of 0.2 mM Boc-AAPAN in a cuvette, 0.01-0.1 ml of DMSO with or without inhibitor was added. After mixing, a measurement was taken at 410 mμ to detect any spontaneous hydrolysis due to presence of test compound. 0.05 Milliliters of PMN extract was then added and the ΔOD/min at 410 mμ was measured and recorded. Beckman model 35 spectrophotometer was used.
Results were also expressed as Ki, the micromolar concentration of the inhibitor (μM) giving 50% of the control enzyme activity; or as ^k obs/I which is the second order rate constant in per mole per second for inactivation of the enzyme.
The elastase activity in the crude PMN extract may vary from one preparation to another. A control of each new batch is run, and the volume added in the assay procedure is adjusted according to activity.

In the case of CCC[C@@H](NC(=O)N1C(=O)C(CC)(CC)[C@@H]1Oc1ccc(CC(=O)O)cc1)c1ccccc1 [Table VI: 4-CH2 COOH; nPr; H, (4S)-3,3-diethyl-1-[(R)-α-n-propylbenzylamino-carbonyl]-4-[(4-carboxymethyl)phenoxy]azetidin-2-one], the kinact/KI (pH 7.5, Table VI) is reported as 188000 M⁻¹ s⁻¹.

CCC[C@@H](NC(=O)N1C(=O)C(CC)(CC)[C@@H]1Oc1ccc(C(=O)O)c(Cl)c1)c1ccc(C)cc1 [Table VI: 3-Cl,4-COOH; nPr; 4-Me, (4S)-3,3-Diethyl-1-[(R)-α-n-propyl-(4-methyl)benzylaminocarbonyl]-4-[(4-carboxy-3-chloro)phenoxy]-azetidin-2-one] showed a kinact/KI (pH 7.5, Table VI) of 621000 M⁻¹ s⁻¹.

Work on CCCC1(CC)C(=O)N(C(=O)NC(CC)c2ccccc2)C1Oc1ccc(CC(=O)O)cc1 (stereo not shown) yielded a kinact/KI (pH 7.5, Table II) of 54000 M⁻¹ s⁻¹.

CCCC1(CC)C(=O)N(C(=O)NCc2ccccc2)C1Oc1ccc(C(=O)O)cc1 (stereo not shown) showed a kinact/KI (pH 7.5, Table II) of 3280 M⁻¹ s⁻¹.

CCC(NC(=O)N1C(=O)C(CC)(CC)C1OCC(N)=O)c1ccccc1 (stereo not shown) [Table III: OCH2CONH2; CH(Et)Ph] was tested, and the kinact/KI (pH 7.5, Table III) was 103000 M⁻¹ s⁻¹.

In the case of C=CC[C@@H](NC(=O)N1C(=O)C(CC)(CC)[C@@H]1Oc1ccc(CC(=O)O)cc1)c1ccc2c(c1)OCO2 [(4S)-3,3-diethyl-1-[(R)-α-allyl-(3,4-methylenedioxy)-benzylaminocarbonyl]-4-[(4-carboxymethyl)phenoxy]azetidin-2-one], the kinact/KI (pH 7.5, Table VI) is reported as 605000 M⁻¹ s⁻¹.

In the case of CCC1(CC)C(=O)N(C(=O)NCc2ccc(S(C)(=O)=O)cc2)C1Oc1ccc(C(=O)O)cc1 (stereo not shown), the kinact/KI (pH 7.5, Table III) is reported as 3350 M⁻¹ s⁻¹.
